In ChEMBL document CHEMBL6121010, “Novel antileukemic compound with sub-micromolar potency against STAT5 addicted myeloid leukemia cells” (Eur J Med Chem, 2025):

Key:
KU812 cell line = experiment: Antileukemic activity against human KU812 cell line assessed as inhibition of cell growth incubated for 48 hrs by MTT assay; assay type: functional, cell-based; conditions: KU812, 48 h
MV4-11 = experiment: Antileukemic activity against human MV4-11 cell line assessed as inhibition of cell growth incubated for 48 hrs by MTT assay; assay type: functional, cell-based; conditions: MV4-11, 48 h
[1] = Cytotoxicity against Bone marrow cell (unknown origin) assessed as cell viability incubated for 48 hrs by MTT assay; assay type: toxicity, cell-based; conditions: bone marrow cells (unknown origin)
[2] = Cytotoxicity against human HS-27A assessed as cell viability incubated for 48 hrs by MTT assay; assay type: toxicity, cell-based; conditions: HS-27A cells
MOLM-13 = experiment: Antileukemic activity against human MOLM-13 assessed as cell viability incubated for 48 hrs by MTT assay; assay type: functional, cell-based; conditions: MOLM-13, 48 h
K562 = experiment: Antileukemic activity against human K562 assessed as cell viability incubated for 48 hrs by MTT assay; assay type: functional, cell-based; conditions: K562, 48 h
KCL-22 = experiment: Antileukemic activity against human KCL-22 assessed as cell viability incubated for 48 hrs by MTT assay; assay type: functional, cell-based; conditions: KCL-22, 48 h

| SMILES | EC50 (KU812 cell line) [µM] | EC50 (MV4-11) [µM] | EC50 at 48 h [1] [µM] | EC50 at 48 h [2] [µM] | EC50 (MOLM-13) [µM] | EC50 (K562) [µM] | EC50 (KCL-22) [µM] |
| --- | --- | --- | --- | --- | --- | --- | --- |
| CC1(C)CCN(CCOc2ccc3[nH]ccc3c2)c2ccc(-c3cnccn3)cc21 | 48.1 | 7.7 | – | – | – | – | – |
| CC1(C)CCN(CCOc2ccc3[nH]ccc3c2)c2ccc(-c3cccnc3)cc21 | 5.4 | 3.6 | 57.6 | 63.3 | 3.3 | 8.7 | 5.6 |
| CC1(C)CCN(CCOc2ccc3[nH]ccc3c2)c2cccc(Cc3ccncc3)c21 | 2.7 | 1.3 | – | – | – | – | – |
| CC1(C)CCN(CCOc2ccc3[nH]ccc3c2)c2cc(Cc3cccnc3)ccc21 | 25.1 | 20.5 | – | – | – | – | – |
| CC1(C)CCN(CCOc2ccc3[nH]ccc3c2)c2cccc(Cc3ccccn3)c21 | 74.4 | 12.4 | – | – | – | – | – |
| CC1(C)CCN(CCOc2ccc3[nH]ccc3c2)c2cccc(-c3cnc(Cl)nc3)c21 | 6.7 | 9 | – | – | – | – | – |
| CC1(C)CCN(CCOc2ccc3[nH]ccc3c2)c2ccc(Cc3ccncc3)cc21 | 21.3 | 25.8 | – | – | – | – | – |
| CC1(C)CCN(CCOc2ccc3[nH]ccc3c2)c2cccc(-c3cnccn3)c21 | 39.3 | 15.3 | – | – | – | – | – |
| CC1(C)CCN(CCOc2ccc3[nH]ccc3c2)c2ccc(-c3cnc(C#N)nc3)cc21 | 2.4 | 3.5 | – | – | – | – | – |
| CC1(C)CCN(CCOc2ccc3[nH]ccc3c2)c2cccc(-c3cccnc3)c21 | 5.8 | 5.9 | – | – | – | – | – |
| CC1(C)CCN(CCOc2ccc3[nH]ccc3c2)c2ccc(-c3cnc(N)cn3)cc21 | 29.2 | 13.7 | – | – | – | – | – |
| CC1(C)CCN(CCOc2ccc3[nH]ccc3c2)c2ccc(-c3cnc(Cl)nc3)cc21 | 1.3 | 2.4 | – | – | – | – | – |
| CC1(C)CCN(CCOc2ccc3[nH]ccc3c2)c2cc(Cc3ccncc3)ccc21 | – | 14.3 | – | – | – | – | – |
| CC1(C)CCN(CCOc2ccc3[nH]ccc3c2)c2ccc(-c3cnc(N)nc3)cc21 | 2.3 | 0.4 | 14.5 | 43.9 | 0.3 | 2.9 | 0.3 |
| CC1(C)CCN(CCOc2ccc3[nH]ccc3c2)c2cc(Cc3ccccn3)ccc21 | > 100 | 34.2 | – | – | – | – | – |
| CC(C)(C)c1cc(CN(C(=O)CN(Cc2ccc(Cl)cc2)S(=O)(=O)c2c(F)c(F)c(F)c(F)c2F)c2ccc(C(=O)O)cc2)cc(C(C)(C)C)c1 | 4.3 | 2.6 | 18.1 | 27.8 | 2.8 | 10.1 | 15.3 |
| CC1(C)CCN(CCOc2ccc3[nH]ccc3c2)c2ccc(Cc3ccccn3)cc21 | 11.5 | 7.7 | – | – | – | – | – |
| CC1(C)CCN(CCOc2ccc3[nH]ccc3c2)c2cccc(-c3ccnnc3)c21 | 23.5 | 14 | – | – | – | – | – |
| CC1(C)CCN(CCOc2ccc3[nH]ccc3c2)c2ccc(-c3ncccn3)cc21 | 29.5 | 4.5 | – | – | – | – | – |
| O=c1[nH]c2ccccc2n1C1CCN(CCCC(c2ccc(F)cc2)c2ccc(F)cc2)CC1 [PIMOZIDE] | 2.9 | 3.2 | 18.2 | 57.5 | 5.9 | 3.5 | 9.3 |
| CC1(C)CCN(CCOc2ccc3[nH]ccc3c2)c2cccc(-c3cncnc3)c21 | > 100 | 51.9 | – | – | – | – | – |
| CC1(C)CCN(CCOc2ccc3[nH]ccc3c2)c2ccc(-c3ccnnc3)cc21 | 44.6 | 16 | – | – | – | – | – |
| CC1(C)CCN(CCOc2ccc3[nH]ccc3c2)c2ccc(-c3cncnc3)cc21 | 8.3 | 4.2 | – | – | – | – | – |
| CC1(C)CCN(CCOc2ccc3[nH]ccc3c2)c2cccc(Cc3cccnc3)c21 | 9.3 | 3.1 | – | – | – | – | – |
| CC1(C)CCN(CCOc2ccc3[nH]ccc3c2)c2ccc(Cc3cccnc3)cc21 | 5.3 | 4.9 | – | – | – | – | – |
| CC1(C)CCN(CCOc2ccc3[nH]ccc3c2)c2cccc(-c3cnc(C#N)nc3)c21 | 4.7 | 5.1 | – | – | – | – | – |
| CC1(C)CCN(CCOc2ccc3[nH]ccc3c2)c2cccc(-c3cnc(N)cn3)c21 | 21.2 | 14.6 | – | – | – | – | – |
| CC1(C)CCN(CCOc2ccc3[nH]ccc3c2)c2cccc(-c3ccncc3)c21 | 2.5 | 2.8 | – | – | – | – | – |
